Data published in patent US5693668A, “Acetylcholinesterase inhibitors” (priority 1989, dated 1997).
Where two headings read alike, the source gives them in different places.

What was measured:
[1] = Aqueous solubility of MDL 73,745 in Trycol medium; assay type: physicochemical; conditions: in presence of Trycol (polyethylene glycol 20 Oleyl ether), 5% in 0.9% sodium chloride
Protocol: Dermal elution media: A 5% solution of polyethylene glycol 20 Oleyl ether (Trycol®, Emery) in 0.9% sodium chloride was used as the receptor medium for the modified Franz Diffusion Cells. […] Temperature of the dermal elution media was maintained at 37° C. using a thermostated constant temperature circulating water bath.

plasma cholineesterase = test: Inhibition of plasma cholinesterase activity during patch application in dogs; assay type: in vivo, Beagle dog; conditions: `lead` prototype patch, throughout patch application (96 hours)
Protocol: (§1) Transdermal Bioavailability of MDL 73,745 from a prototype transdermal delivery system in Beagle Dogs
(§2) A `lead` prototype formulation was then evaluted in an in vivo dog model. […] The rate of in vivo transdermal delivery in the dog was calculated to be 7.7 μg/cm^2 /hr.

[2] = In vivo transdermal delivery of MDL 73,745 from prototype patch in Beagle dogs; design: species or system Beagle dog
Protocol: as §1, §2
Three male Beagle dogs were studied. Animals were fasted 12 h before drug administration but had free access to drinking water. The following single doses of [^14 C]-MDL 73,745 were administered: intravenous (iv): 1 and 2 mg/kg; oral (po): 10 mg/kg; subcutaneous (sc): 10 mg/kg. There was a two week wash-out period between each administration. Drug was administered as a suspension in 0.5% methyl cellulose.
From the equation: S.ko=Cl.Css
S=area (cm^2) of the patch
Css =steady-state concentration (ng/ml)
ko-rate of release from the delivery system per unit surface area can be calculated: […]

[3] = Pharmacokinetics and bioavailability of [14C]-MDL 73,745 in Beagle dogs; assay type: in vivo, Beagle dog; conditions: for half-life / clearance / Vd / Cmax / Tmax / bioavailability: dog, in vivo; for Vd: read-out: aVd; for bioavailability: normalized to 2 mg/kg iv
Protocol: Three male Beagle dogs were studied. Animals were fasted 12 h before drug administration but had free access to drinking water. The following single doses of [^14 C]-MDL 73,745 were administered: intravenous (iv): 1 and 2 mg/kg; oral (po): 10 mg/kg; subcutaneous (sc): 10 mg/kg. There was a two week wash-out period between each administration. Drug was administered as a suspension in 0.5% methyl cellulose. […]

[4] = iv, 2 mg/kg, iv 2 mg/kg, dog No. 17
[5] = iv, 2 mg/kg, iv 2 mg/kg, dog No. 18
[6] = iv, 2 mg/kg, iv 2 mg/kg, dog No. 19
[7] = iv, 2 mg/kg, iv 2 mg/kg, mean ± SD of 3 dogs
[8] = po, 10 mg/kg, oral 10 mg/kg, dog No. 17
[9] = po, 10 mg/kg, oral 10 mg/kg, dog No. 18
[10] = po, 10 mg/kg, oral 10 mg/kg, dog No. 19
[11] = po, 10 mg/kg, oral 10 mg/kg, mean ± SD of 3 dogs
[12] = sc, 10 mg/kg, subcutaneous 10 mg/kg, dog No. 17
[13] = sc, 10 mg/kg, subcutaneous 10 mg/kg, dog No. 18
[14] = sc, 10 mg/kg, subcutaneous 10 mg/kg, dog No. 19
[15] = sc, 10 mg/kg, subcutaneous 10 mg/kg, mean ± SD of 3 dogs

Compound: C[Si](C)(C)c1cccc(C(=O)C(F)(F)F)c1 [MDL 73,745, 2,2,2-Trifluoro-1-(3-trimethylsilylphenyl) ethanone]
- aqueous solubility [1]: increases the aqueous solubility
- inhibition of plasma cholineesterase activity (plasma cholineesterase): inhibition of plasma cholineesterase activity was achieved
- rate of in vivo transdermal delivery ([2]; `lead` prototype patch, dog, calculated): 7.7 μg/cm^2 /hr
- plasma level ([2]; `lead` prototype patch, throughout patch application (96 hours)): constant, steady state plasma level
- ko, rate of release from the delivery system per unit surface area ([2]; patch 70% w/w MDL 73,745 in DuroTak 80-1074, 5 mg/cm^2, same for both doses, from S.ko=Cl.Css): 7.7 μg/hr/cm^2
- half-life [3, 4]: 1120 min
- clearance ([3]; iv, 2 mg/kg, iv 2 mg/kg, dog No. 17, read-out: Cltot): 78.3 mL/min/kg
- Vd [3, 4]: 125 L/kg
- half-life [3, 5]: 1690 min
- clearance ([3]; iv, 2 mg/kg, iv 2 mg/kg, dog No. 18, read-out: Cltot): 63.3 mL/min/kg
- Vd [3, 5]: 153 L/kg
- half-life [3, 6]: 1570 min
- clearance ([3]; iv, 2 mg/kg, iv 2 mg/kg, dog No. 19, read-out: Cltot): 100 mL/min/kg
- Vd [3, 6]: 228 L/kg
- half-life [3, 7]: 1460 ± 300 min
- clearance ([3]; iv, 2 mg/kg, iv 2 mg/kg, mean ± SD of 3 dogs, read-out: Cltot): 80.5 ± 18.5 mL/min/kg
- Vd [3, 7]: 169 ± 53.3 L/kg
- clearance ([3]; iv, iv data, read-out: drug clearance): 960 mL/min
- Cmax [3, 8]: 15.8 ng/mL
- Tmax [3, 8]: 1 h
- half-life [3, 8]: 1280 min
- Cmax [3, 9]: 15.3 ng/mL
- Tmax [3, 9]: 0.17 h
- half-life [3, 9]: 1770 min
- Cmax [3, 10]: 21.8 ng/mL
- Tmax [3, 10]: 1 h
- half-life [3, 10]: 1040 min
- Cmax [3, 11]: 17.7 ± 3.58 ng/mL
- Tmax [3, 11]: 0.72 ± 0.48 h
- half-life [3, 11]: 1370 ± 372 min
- bioavailability ([3]; po, 10 mg/kg, oral 10 mg/kg, dog No. 17, read-out: F (AUCpo /AUCiv)): 3.4%
- bioavailability ([3]; po, 10 mg/kg, oral 10 mg/kg, dog No. 18, read-out: F (AUCpo /AUCiv)): 2.6%
- bioavailability ([3]; po, 10 mg/kg, oral 10 mg/kg, dog No. 19, read-out: F (AUCpo /AUCiv)): 4.5%
- bioavailability ([3]; po, 10 mg/kg, oral 10 mg/kg, mean ± SD of 3 dogs, read-out: F (AUCpo /AUCiv)): 3.5 ± 1%
- bioavailability ([3]; po, 10 mg/kg, oral, 10 mg/kg, read-out: Mean bioavailability (F)): 4%
- Cmax [3, 12]: 68.4 ng/mL
- Tmax [3, 12]: 6 h
- half-life [3, 12]: 768 min
- Cmax [3, 13]: 42.9 ng/mL
- Tmax [3, 13]: 8 h
- half-life [3, 13]: 1960 min
- Cmax [3, 14]: 44.7 ng/mL
- Tmax [3, 14]: 4 h
- half-life [3, 14]: 1470 min
- Cmax [3, 15]: 52 ± 14.2 ng/mL
- Tmax [3, 15]: 6 ± 2 h
- half-life [3, 15]: 1400 ± 600 min
- bioavailability ([3]; sc, 10 mg/kg, subcutaneous 10 mg/kg, dog No. 17, read-out: F): 41%
- bioavailability ([3]; sc, 10 mg/kg, subcutaneous 10 mg/kg, dog No. 18, read-out: F): 25%
- bioavailability ([3]; sc, 10 mg/kg, subcutaneous 10 mg/kg, dog No. 19, read-out: F): 36%
- bioavailability ([3]; sc, 10 mg/kg, subcutaneous, 10 mg/kg, read-out: Mean bioavailability (F)): 34%
- bioavailability ([3]; topical or ocular, 10 mg/kg, dermal patch, 10 mg/kg, read-out: Mean bioavailability (F)): 16%
- bioavailability ([3]; topical or ocular, 10 mg/kg, topical dermal cream, 10 mg/kg, read-out: Mean bioavailability (F)): 7%
- bioavailability ([3]; topical or ocular, 50 mg/kg, dermal patch, 50 mg/kg, read-out: Mean bioavailability (F)): 12%
- bioavailability ([3]; topical or ocular, 50 mg/kg, topical dermal cream, 50 mg/kg, read-out: Mean bioavailability (F)): 3%
- Metabolic Index (AUCun /AUCRAD) ([3]; iv 2 mg/kg, dog No. 17): 0.011
- Metabolic Index (AUCun /AUCRAD) ([3]; iv 2 mg/kg, dog No. 18): 0.015
- Metabolic Index (AUCun /AUCRAD) ([3]; iv 2 mg/kg, dog No. 19): 0.009
- Metabolic Index (AUCun /AUCRAD) ([3]; iv 2 mg/kg, mean ± SD of 3 dogs): 0.012 ± 0.003
- Metabolic Index (AUCun /AUCRAD) ([3]; oral 10 mg/kg, dog No. 17): 0.0006
- Metabolic Index (AUCun /AUCRAD) ([3]; oral 10 mg/kg, dog No. 18): 0.0011
- Metabolic Index (AUCun /AUCRAD) ([3]; oral 10 mg/kg, dog No. 19): 0.0006
- Metabolic Index (AUCun /AUCRAD) ([3]; oral 10 mg/kg, mean ± SD of 3 dogs): 0.0008 ± 0.0003
- Metabolic Index (AUCun /AUCRAD) ([3]; subcutaneous 10 mg/kg, dog No. 17): 0.006
- Metabolic Index (AUCun /AUCRAD) ([3]; subcutaneous 10 mg/kg, dog No. 18): 0.007
- Metabolic Index (AUCun /AUCRAD) ([3]; subcutaneous 10 mg/kg, dog No. 19): 0.004
- Metabolic Index (AUCun /AUCRAD) ([3]; subcutaneous 10 mg/kg, mean ± SD of 3 dogs): 0.006 ± 0.002
